The text below walks through data of PMC9088825, “N ^α-arylsulfonyl histamines as selective β-glucosidase inhibitors” (RSC Advances, 2018).

Like-named read-outs stand apart in the source and are kept apart here.

Test [1] deals with T1, β-galactosidase (β-Gal) (Kluyveromyces lactis, UniProt P00723). Set-up: method as in earlier work. The note with it: ref 1 (Kato et al., J. Med. Chem., 2005, 48, 2036-2044); read-out: IC50 (β-Gal), reference inhibitor; cited from earlier work.
Test [2] concerns the target acetyl cholinesterase (AChE) (Electrophorus electricus, UniProt O42275). It counts as biochemical, electric eel. Particulars: tested at 1.5 μM. As for the experimental part:
AChE activity measurement was carried on based on Ellman's method.[46] […] The plate was shaken for 2 s and the increase in absorbance at 405 nm was monitored at 37 °C for 15 min.

The next test concerns the target xanthine oxidase (XO) (Bos taurus, UniProt P80457). Kind of test: XO microplate assay (uric acid formation). It counts as biochemical, bovine. The note with it: tested at 3 μM. As for the experimental part: Following the method previously reported by Chu,[45] the formation of uric acid was continuously measured in 96-well microplate. Each well was filled in triplicates with: of 10 μL test compound in DMSO (0.11 μM end concentration in well) and XO (bovine) in 0.2 M buffer phosphate, pH 7.5 (2.81 μU mL^−1, end concentration in well). […] The final volume in well was 270 μL. The enzymatic reaction was initiated by addition of the xanthine substrate (0.04 mM, end concentration in well). The plate was shaken for 2 s and the increase in absorbance at 295 nm was monitored at 30 °C for 20 min.

In test [3] the test system is β-Glc. Kind of test: Jump dilution assay. It counts as biochemical, almonds. As for the experimental part:
After 30 minutes of incubation, the mixture was diluted 100-fold and mixed with the substrate and α-CD to start the reaction. The progress curve of this sample was measured and compared to a sample of enzyme incubated and diluted in the absence of inhibitor. Each incubation and dilution were prepared and measured in triplicate. The percentage of activity recovery was obtained using Prism V5.01 (GraphPad Software Inc.).

Test [4] addresses T1, β-galactosidase (β-Gal). As to the kind of experiment: β-Gal microplate assay. The note with it: up to 3.500 mM. It counts as biochemical. Here is the method:
Similar to the method applied in β-Glc assay, the hydrolysis of o-nitrophenyl-β-O-D-galactopyranoside (β-ONPG) was continuously measured in 96-well microplate. Wells were filled in triplicate with β-Gal (Kluyveromyces lactis) in 50 mM buffer phosphate, pH 7 (7.20 μU mL^−1 final concentration in well) and 10 μL of test compound in dimethylsulfoxide (DMSO) solution (100 μM or 500 μM end concentration in well). The final volume in well was 270 μL. The enzymatic reaction was initiated by addition of β-ONPG (3.23 mM end concentration in well). The plate was shaken for 2 s and the increase in absorbance at 405 nm was monitored at 37 °C for 10 min. For IC50 determination, eighteen serial dilutions of the compounds were prepared in DMSO, following equally spaced points in neperian logarithm scale, starting at 94.50 mM and finishing at 1.44 μM. IC50 was calculated using Prism V5.01 (GraphPad Software Inc., La Jolla, CA, USA) requesting the software a non-linear regression curve fit for a log[Inhibitor] vs. normalized answer model with variable slope.

Test [5] deals with β-Glc. Kind of test: Kinetic experiments (Lineweaver–Burk, Ki). The format is biochemical, almonds. As for the experimental part:
Microplate assay was carried on varying substrate concentration between 0.022 and 7.2 mM; as well as the inhibitor concentration was varied between 0.239 and 0.0061 mM. Initial velocities vs. [S] curves were obtained with Michaelis–Menten equation adjustment. After that, Lineweaver–Burk linearization plot and the secondary linearization of Slopes vs. [I] reveled type of inhibition and Ki value respectively. All the data acquired was treated through Prism V5.01 (GraphPad Software Inc.).

The test system of test [6] is β-Glc (from almonds). As to the kind of experiment: β-Glc microplate assay (hydrolysis of p-nitrophenyl-β-D-glucopyranoside). The format is biochemical. Particulars: for IC50: microplate assay, β-PNPG substrate, pH 7, 37 °C, read-out: IC50 (β-Glc inhibition). Here is the method: The final volume in well was 270 μL. The enzymatic reaction was initiated by addition of β-PNPG (1.63 mM end concentration in well). […] For IC50 determination, ten serial dilutions of the compounds were prepared in DMSO, following equally spaced points in […] logarithm scale, starting at 16.2 mM and finishing at 1.7 μM. IC50 was calculated using Prism V5.01 (GraphPad Software Inc., La Jolla, CA, USA) requesting the software a non-linear regression curve fit for a log[Inhibitor] vs. normalized answer model with variable slope.

Test [7] addresses β-Glc. The note with it: cited from earlier work.
The subject of test [8] is β-Glc (from almonds). The note with it: cited from earlier work.
The mark [9] stands for this setting: binds the active site of β-Glc from almonds, read-out: Ki (β-Glc from almonds).

T1 sequence (P00723 whole entry): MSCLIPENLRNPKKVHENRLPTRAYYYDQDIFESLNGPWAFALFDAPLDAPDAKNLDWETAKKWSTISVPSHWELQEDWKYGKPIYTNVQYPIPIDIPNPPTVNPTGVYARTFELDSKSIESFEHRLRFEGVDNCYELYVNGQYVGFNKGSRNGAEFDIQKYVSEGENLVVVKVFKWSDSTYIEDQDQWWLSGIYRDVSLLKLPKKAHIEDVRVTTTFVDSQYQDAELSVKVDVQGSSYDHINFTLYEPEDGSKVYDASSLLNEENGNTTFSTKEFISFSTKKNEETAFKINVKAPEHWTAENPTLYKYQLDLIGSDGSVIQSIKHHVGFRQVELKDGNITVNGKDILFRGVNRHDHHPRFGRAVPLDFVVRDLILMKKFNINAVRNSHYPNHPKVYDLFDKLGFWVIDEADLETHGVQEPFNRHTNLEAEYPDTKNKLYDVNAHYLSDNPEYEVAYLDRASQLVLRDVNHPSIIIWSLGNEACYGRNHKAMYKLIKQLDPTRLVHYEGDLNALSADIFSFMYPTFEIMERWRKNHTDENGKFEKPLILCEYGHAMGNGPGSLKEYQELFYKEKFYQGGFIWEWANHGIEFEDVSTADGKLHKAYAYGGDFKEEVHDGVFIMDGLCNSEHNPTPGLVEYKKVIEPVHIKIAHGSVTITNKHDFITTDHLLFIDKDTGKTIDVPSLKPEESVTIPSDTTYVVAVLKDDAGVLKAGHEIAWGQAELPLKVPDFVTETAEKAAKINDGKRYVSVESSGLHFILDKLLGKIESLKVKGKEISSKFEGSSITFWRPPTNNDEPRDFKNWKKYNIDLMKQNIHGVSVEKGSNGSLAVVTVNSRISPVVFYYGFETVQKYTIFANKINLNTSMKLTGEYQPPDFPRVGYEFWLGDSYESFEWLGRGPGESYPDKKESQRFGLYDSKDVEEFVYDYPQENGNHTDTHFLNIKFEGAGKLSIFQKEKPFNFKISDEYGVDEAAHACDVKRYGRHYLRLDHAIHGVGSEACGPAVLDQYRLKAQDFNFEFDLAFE
xanthine oxidase (XO), sequence (P80457 whole entry): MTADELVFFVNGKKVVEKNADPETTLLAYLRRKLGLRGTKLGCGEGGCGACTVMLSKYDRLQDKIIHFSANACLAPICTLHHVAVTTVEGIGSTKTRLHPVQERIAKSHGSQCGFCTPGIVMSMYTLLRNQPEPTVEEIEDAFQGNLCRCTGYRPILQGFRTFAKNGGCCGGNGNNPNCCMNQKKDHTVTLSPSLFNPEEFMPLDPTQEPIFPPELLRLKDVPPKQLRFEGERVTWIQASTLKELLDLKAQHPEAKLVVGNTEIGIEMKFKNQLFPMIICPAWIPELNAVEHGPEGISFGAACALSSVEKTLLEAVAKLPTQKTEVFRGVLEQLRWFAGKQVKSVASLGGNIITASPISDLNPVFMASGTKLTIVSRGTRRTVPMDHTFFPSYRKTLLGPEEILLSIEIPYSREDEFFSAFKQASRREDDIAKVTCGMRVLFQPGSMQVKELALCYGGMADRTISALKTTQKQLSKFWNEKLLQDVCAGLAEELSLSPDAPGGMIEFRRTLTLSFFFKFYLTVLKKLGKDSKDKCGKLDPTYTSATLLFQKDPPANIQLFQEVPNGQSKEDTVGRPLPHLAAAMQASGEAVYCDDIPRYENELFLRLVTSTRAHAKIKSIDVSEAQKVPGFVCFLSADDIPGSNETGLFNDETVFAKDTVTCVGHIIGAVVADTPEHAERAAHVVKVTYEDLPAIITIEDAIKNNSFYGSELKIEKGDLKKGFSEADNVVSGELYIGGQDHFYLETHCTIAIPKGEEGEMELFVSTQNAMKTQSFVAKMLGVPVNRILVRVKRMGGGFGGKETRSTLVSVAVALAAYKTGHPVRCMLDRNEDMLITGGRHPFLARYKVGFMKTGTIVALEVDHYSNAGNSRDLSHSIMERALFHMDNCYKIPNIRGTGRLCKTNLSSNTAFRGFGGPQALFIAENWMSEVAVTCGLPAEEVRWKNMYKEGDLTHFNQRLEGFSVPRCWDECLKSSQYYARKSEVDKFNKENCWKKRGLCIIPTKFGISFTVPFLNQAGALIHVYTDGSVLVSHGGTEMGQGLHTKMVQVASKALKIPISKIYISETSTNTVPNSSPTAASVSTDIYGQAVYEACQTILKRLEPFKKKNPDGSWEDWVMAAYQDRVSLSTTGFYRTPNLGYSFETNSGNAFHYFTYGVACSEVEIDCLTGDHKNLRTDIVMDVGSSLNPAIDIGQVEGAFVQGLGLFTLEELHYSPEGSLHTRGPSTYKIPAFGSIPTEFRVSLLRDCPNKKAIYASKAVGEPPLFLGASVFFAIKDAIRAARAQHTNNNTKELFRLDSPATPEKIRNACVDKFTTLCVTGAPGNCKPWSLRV
acetyl cholinesterase (AChE), sequence (O42275 24-633): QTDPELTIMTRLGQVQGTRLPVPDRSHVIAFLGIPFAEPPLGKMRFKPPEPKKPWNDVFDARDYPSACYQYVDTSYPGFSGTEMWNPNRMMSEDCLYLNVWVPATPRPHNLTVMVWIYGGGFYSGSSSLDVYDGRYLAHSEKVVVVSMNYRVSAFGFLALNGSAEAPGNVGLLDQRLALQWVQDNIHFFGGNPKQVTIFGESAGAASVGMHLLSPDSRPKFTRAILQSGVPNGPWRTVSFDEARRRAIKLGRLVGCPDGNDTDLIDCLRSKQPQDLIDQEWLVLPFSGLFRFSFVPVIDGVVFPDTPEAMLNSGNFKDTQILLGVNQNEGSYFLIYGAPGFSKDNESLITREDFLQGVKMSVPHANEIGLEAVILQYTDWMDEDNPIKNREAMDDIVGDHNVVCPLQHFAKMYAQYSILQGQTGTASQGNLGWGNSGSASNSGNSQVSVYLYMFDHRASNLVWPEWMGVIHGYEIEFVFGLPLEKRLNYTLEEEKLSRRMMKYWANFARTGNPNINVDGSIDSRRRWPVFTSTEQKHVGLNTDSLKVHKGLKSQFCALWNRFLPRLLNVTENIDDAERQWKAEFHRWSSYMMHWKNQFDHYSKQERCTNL

For `OC[C@H]1NC[C@H](O)[C@@H](O)[C@H]1O` [galacto-DNJ], at β-galactosidase (β-Gal) [1], the IC50 was 90 µM.
For `O=S(=O)(NCCc1c[nH]cn1)c1ccc(F)cc1` [I-c, N ^α-4-fluorobenzenesulfonyl histamine], in test [2], the “Inhibition of AChE” value is reported as “no inhibition”. The inhibition at 3 µM at xanthine oxidase (XO) amounted to 1.31%. For the same molecule, the “Enzyme activity recovery (jump dilution)” value in the test on β-Glc [3] (incubated at 10-fold IC50, 30 min, diluted 100-fold) is reported as 91%. In addition, the “Enzyme–inhibitor interaction (reversibility)” value in the test with β-Glc [3] (jump dilution) is on record as “reversible”. The “Inhibition of β-Gal” value at β-galactosidase (β-Gal) [4] was “no inhibition”. Moreover, in the test on β-Glc [5] (different concentrations of p-NPG and inhibitor), the “Type of inhibition (Lineweaver–Burk plot)” value is “competitive”. For the same molecule, the Ki at β-Glc [5] (kinetic assays, p-NPG substrate) was 8.11 µM. In the test on β-Glc (from almonds) [6], the IC50 came to 65.1 ± 1.04 µM. Further, in the test with β-Glc (from almonds) [6] (tested at 65 μM), the “% inhibition of β-Glc at 65 μM” value is listed as 49.94%.
In the case of `O=S(=O)(NCCc1c[nH]cn1)c1ccc(F)cc1Cl` [I-f, N ^α-2-Chloro-4-fluorobenzenesulfonyl histamine], the half-inhibitory concentration (IC50) in the test with β-Glc (from almonds) [6] stood at 244.2 ± 1.09 µM.
As for `Cc1ccc(S(=O)(=O)NCCc2c[nH]cn2)cc1` [I-b, N ^α-p-toluenesulfonyl histamine], in the test with β-Glc (from almonds) [6], the half-maximal inhibitory concentration (IC50) was found to be 250 ± 1.03 µM.
Turning to `O=S(=O)(NCCc1c[nH]cn1)c1ccc(F)cc1C(F)(F)F` [I-h, N ^α-2-(trifluoromethyl)-4-fluorobenzenesulfonyl histamine], the 50% inhibitory concentration (IC50) in the test on β-Glc (from almonds) [6] was 72.7 ± 1.05 µM.
In the case of `O=S(=O)(NCCc1c[nH]cn1)c1c(F)c(F)c(F)c(F)c1F` [I-i, N ^α-pentafluorobenzenesulfonyl histamine], in the test with β-Glc (from almonds) [6], the IC50 stood at 102 ± 1.05 µM.
Turning to `O=S(=O)(NCCc1c[nH]cn1)c1ccc(C(F)(F)F)cc1` [I-d, N ^α-4-(trifluoromethyl)benzenesulfonyl histamine], the IC50 in the test on β-Glc (from almonds) [6] is 79.5 ± 1.05 µM.
For the molecule `O=S(=O)(NCCc1c[nH]cn1)c1cc(F)c(F)c(F)c1` [I-g, N ^α-3,4,5-trifluorobenzenesulfonyl histamine], the IC50 in the test on β-Glc (from almonds) [6] stood at 71.4 ± 1.02 µM.
The same measure, in the same setting: for `COc1ccc(S(=O)(=O)NCCc2c[nH]cn2)cc1F` [I-j, N ^α-3-fluoro-4-methoxybenzenesulfonyl histamine] the value was 95.5 ± 1.02 µM.
Take `c1c[nH]cn1` [imidazole]: the Ki on β-Glc [7] (setting [9]) was 530 µM.
Take `O=S(=O)(NCCc1c[nH]cn1)c1ccccc1` [I-a, N ^α-benzenesulfonyl histamine]: the 50% inhibitory concentration (IC50) in the test on β-Glc (from almonds) [6] was found to be 197 µM.
`NCCc1c[nH]cn1` [histamine]: the Ki at β-Glc [7] (setting [9]) was 2100 µM. The 50% inhibitory concentration (IC50) in the test with β-Glc (from almonds) [6] is more than 1000 µM.
Take `O=S(=O)(NCCc1cn(S(=O)(=O)c2ccccc2)cn1)c1ccccc1` [II-a, N ^α,N^τ-di-benzenesulfonyl histamine]: the half-inhibitory concentration (IC50) in the test on β-Glc (from almonds) [8] (read-out: IC50 (β-Glc inhibition), reported value) was 250 µM.
Consider `OC[C@H]1NC[C@H](O)[C@@H](O)[C@@H]1O` [1-DNJ, 1-deoxynojirimycin, reference compound], for which the IC50 in the test on β-Glc (from almonds) [8] (read-out: IC50 (β-Glc inhibition), reported value for reference inhibitor) is 81 µM; in the test on β-Glc (from almonds) [6], 65.2 ± 1.04 µM. The inhibition constant (Ki) at β-Glc [7] (measured in similar conditions, read-out: Ki (β-Glc), reference compound) is 47 µM.
Take `Cc1ccc(F)c(S(=O)(=O)NCCc2c[nH]cn2)c1` [I-e, N ^α-2-fluor-5-methylbenzenesulfonyl histamine]: the “% of inhibition of β-Glc at 40 μM” value in the test with β-Glc (from almonds) [6] (fixed compound concentration 40 μM) was not above 25%. For the same molecule, in the test with β-Glc (from almonds) [6], the IC50 worked out at 421.6 ± 0.94 µM.
